In patent EP4800012A1, “COMPOUND ACTING AS PARP7 INHIBITOR” (Dovetree Medicines Unus, Inc., priority 2023, dated 2025):
Like-named read-outs stand apart in the source and are kept apart here.

Assays:
[1] = biological target: T1, PARP7 (Homo sapiens, UniProt Q7Z3E1); test: Inhibition of the compound on PARP7 protein activity (ADP-ribosylation, chemiluminescence); assay type: biochemical; details: Histone H1 coated plate, Biotin-Labeled NAD+, 2 h at room temperature, chemiluminescence; read-out: PARP7 activity inhibition IC50
T1 construct: purchased BPS 80527
T1 sequence (Q7Z3E1 1-657): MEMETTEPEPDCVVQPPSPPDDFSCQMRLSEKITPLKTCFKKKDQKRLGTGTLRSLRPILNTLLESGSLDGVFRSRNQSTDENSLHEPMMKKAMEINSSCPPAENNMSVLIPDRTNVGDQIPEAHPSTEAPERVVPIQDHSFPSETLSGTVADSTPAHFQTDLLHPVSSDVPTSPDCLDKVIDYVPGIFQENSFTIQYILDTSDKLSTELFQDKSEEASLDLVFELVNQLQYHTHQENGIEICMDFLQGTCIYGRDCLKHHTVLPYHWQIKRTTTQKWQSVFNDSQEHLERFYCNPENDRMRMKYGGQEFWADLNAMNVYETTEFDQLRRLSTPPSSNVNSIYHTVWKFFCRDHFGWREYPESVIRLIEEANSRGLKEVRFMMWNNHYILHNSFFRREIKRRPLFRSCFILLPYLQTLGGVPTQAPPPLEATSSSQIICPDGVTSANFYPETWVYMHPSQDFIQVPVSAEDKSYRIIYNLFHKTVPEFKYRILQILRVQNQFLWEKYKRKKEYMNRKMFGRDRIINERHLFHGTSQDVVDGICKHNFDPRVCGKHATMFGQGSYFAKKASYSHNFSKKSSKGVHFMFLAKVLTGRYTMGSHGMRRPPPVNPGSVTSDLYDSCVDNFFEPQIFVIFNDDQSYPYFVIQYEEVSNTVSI

[2] = test system: NCI-H1373 cells; test: Inhibition on NCI-H1373 cell proliferation (Cell-Titer-Glo); assay type: cell-based; details: Homo sapiens, read-out: NCI-H1373 cell proliferation inhibition IC50
Method: The inhibitory effect of the compound on PARP7 was evaluated by testing the inhibitory effect of the compound on NCI-H1373 cell proliferation.
NCI-H1373 cells (ATCC, CRL-5866) were cultured in a complete medium, namely, a RPMI-1640 medium (Gibco, 22400089) containing 10% fetal bovine serum (Corning, 35-081-CV).
Negative control wells and positive control wells were added with 50 nL DMSO (Sigma, D2650), respectively.
In "Day 0" detection plate, NCI-H1373 cells were seeded at a density of 600 cells/well (50 µL) in a complete medium into the Day 0 test wells of a 384-well detection plate (Grenier, 781091). Then, 25 µL of Cell-Titer-Glo reagent (Promega, G7573) was added to each well, followed by centrifugation at 1000 rpm at room temperature for 1 minute and incubation at room temperature under shaded conditions for 10 min. Chemiluminescence signals were collected using an Envision (Perkin Elmer, EnVision 2105) to obtain the average value of the Day 0 test values.
In "compound detection plate", NCI-H1373 cells were seeded at a density of 600 cells/well (50 µL) in a complete medium into the negative control wells and the compound detection wells of a 384-well detection plate (Grenier, 781091), and 50 µL of cell culture medium was added to the positive control wells, followed by centrifugation at 1000 rpm at room temperature for 1 minute and placing in a cell incubator at 37°C, 5% CO2 for incubation for 6 days. […] Chemiluminescence signals were collected using an Envision (Perkin Elmer, EnVision 2105). The test values for each compound well, negative control well, and positive control well were obtained.
The proliferation inhibition ratio formula is as follows: [formula]
The average value of the negative control = the average value of the Day 6 test values of each negative control well minus the average value of the Day 0 test values
The average value of the positive control = the average value of the Day 6 test values of each positive control well
The average value of the compound test = (the Day 6 test value of compound test well 1 + the Day 6 test value of compound test well 2)/2 - the average value of the Day 0 test values

[3] = biological target: T1, PARP7; test: PARP7 TR-FRET binding inhibition (displacement of probe RBN011147); details: TR-FRET, Biotin-labeled probe RBN011147; read-out: PARP7 binding inhibition IC50
Method: The ability of the compound to substitute the probe RBN011147 (Wigle et al., 2020, Cell Chemical Biology 27, 877-887) was tested by a TR-FRET method, and IC50 was calculated to evaluate the binding ability of the compound to PARP7. […]

[4] = 144 h, NCI-H1373 cells, incubation for 6 days, Cell-Titer-Glo

SMILES	IC50 [1] [nM]	IC50 [2, 4] [nM]	IC50 [3] [nM]	IC50 ([2]; NCI-H1373, 144 h) [nM]
O=C(NCCCC(Nc1cn[nH]c(=O)c1C(F)(F)F)C1CC1)c1cnc(-c2ncc(C(F)(F)F)s2)cn1 (stereo not drawn) [Example 54]	3 to 10	> 3000	10 to 30	–
O=C(NCCCC(Nc1cn[nH]c(=O)c1C(F)(F)F)C1CC1)c1ccc(-c2ncc(C(F)(F)F)s2)cc1 (stereo not drawn) [Example 55]	< 3	1000 to 3000	< 10	–
CC(CCCNC(=O)c1ccc(-c2ncc(N(C)C3CC3)s2)cc1)Nc1cn[nH]c(=O)c1C(F)(F)F (stereo not drawn) [Example 56]	< 3	300 to 1000	< 10	–
CC(CCCNC(=O)c1ccc(-c2ncc(N(C)C)s2)cc1)Nc1cn[nH]c(=O)c1C(F)(F)F (stereo not drawn) [Example 57]	3 to 10	–	< 10	1000 to 3000
CC(CCCNC(=O)c1ccc(-c2ncc(N3CCCCC3)s2)cc1)Nc1cn[nH]c(=O)c1C(F)(F)F (stereo not drawn) [Example 58]	3 to 10	> 3000	< 10	–
CC(CCCNC(=O)c1ncc(-c2ncc(N3CC(F)C3)cn2)cc1F)Nc1cn[nH]c(=O)c1C(F)(F)F (stereo not drawn) [Example 72]	< 3	300 to 1000	< 10	–
CC(CCCNC(=O)c1ncc(-c2ncc(C(F)F)s2)cc1F)Nc1cn[nH]c(=O)c1C(F)(F)F (stereo not drawn) [Example 74]	< 3	> 3000	< 10	–
CC(CCCNC(=O)c1ncc(-c2ncc(C(F)(F)F)s2)cc1F)Nc1cn[nH]c(=O)c1C(F)(F)F (stereo not drawn) [Example 75]	< 3	< 300	< 10	–
Cc1c(CCC(=O)Nc2ncc(-c3ncc(C(F)(F)F)cn3)cc2F)c[nH]c(=O)c1C(F)(F)F [Example 76]	3 to 10	> 3000	10 to 30	–
CC(CCCNC(=O)c1ccc(-c2ncc(C(F)(F)F)s2)cc1F)Nc1cn[nH]c(=O)c1C(F)(F)F (stereo not drawn) [Example 77]	< 3	< 300	< 10	–

The next lines start with results.

IC50 [1] [nM]	IC50 [2, 4] [nM]	IC50 [3] [nM]	SMILES	IC50 ([2]; NCI-H1373, 144 h) [nM]
30 to 100	> 3000	30 to 100	CC(CCCNC(=O)c1ccc2c(=O)n(C)cnc2c1)Nc1cn[nH]c(=O)c1C(F)(F)F (stereo not drawn) [Example 59]	–
< 3	300 to 1000	< 10	CC(CCCNC(=O)c1ccc(-c2cscn2)nc1)Nc1cn[nH]c(=O)c1C(F)(F)F (stereo not drawn) [Example 60]	–
< 3	< 300	< 10	CC(CCCNC(=O)c1ccc(-n2cc(C(F)(F)F)cn2)cc1)Nc1cn[nH]c(=O)c1C(F)(F)F (stereo not drawn) [Example 61]	–
30 to 100	> 3000	30 to 100	CC(CCCNC(=O)c1ccc(-n2cccn2)c(F)c1)Nc1cn[nH]c(=O)c1C(F)(F)F (stereo not drawn) [Example 62]	–
< 3	< 300	< 10	CC(CCCNC(=O)c1ccc(-c2ncc(N(C)C)cn2)cc1)Nc1cn[nH]c(=O)c1C(F)(F)F (stereo not drawn) [Example 63]	–
10 to 30	> 3000	> 100	CC(CCCNC(=O)c1ccc(-c2ccc(=O)n(C)n2)cc1)Nc1cn[nH]c(=O)c1C(F)(F)F (stereo not drawn) [Example 64]	–
30 to 100	> 3000	30 to 100	COc1nc(-c2ccc(C(=O)NCCCC(C)Nc3cn[nH]c(=O)c3C(F)(F)F)cc2)cs1 (stereo not drawn) [Example 65]	–
30 to 100	> 3000	> 100	Cc1cc(=O)n(C)nc1-c1ccc(C(=O)NCCCC(C)Nc2cn[nH]c(=O)c2C(F)(F)F)cc1 (stereo not drawn) [Example 66]	–
< 3	300 to 1000	< 10	CC(CCCNC(=O)c1ccc(-c2ncc(C#N)cc2F)cc1)Nc1cn[nH]c(=O)c1C(F)(F)F (stereo not drawn) [Example 67]	–
< 3	300 to 1000	< 10	Cc1cc(-c2ccc(C(=O)NCCCC(C)Nc3cn[nH]c(=O)c3C(F)(F)F)cc2)ncc1C#N (stereo not drawn) [Example 68]	–
< 3	300 to 1000	< 10	CC(CCCNC(=O)c1ncc(-c2ncc(C(F)(F)F)cn2)cc1F)Nc1cn[nH]c(=O)c1C(F)(F)F (stereo not drawn) [Example 73]	–
